In assay [1] the test system is MRL/lpr mice. Briefly: Lupus nephritis in MRL/lpr mice. It counts as in vivo. As for the experimental part: The 10-week-old female MRL/lpr mice were fed in an SPF environment with a light-dark cycle of 12 h and the temperature maintained at 24-26° C. The mice were randomly divided into three groups according to their body weights, namely, the model group (Control, n=8, 0.5% CMC-Na by oral gavage), TJ01-013 10 mg/kg treatment group (10 mg/kg, n=8, 10 mg/kg TJ01-013 by oral gavage), TJ01-013 30 mg/kg treatment group (30 mg/kg, n=8, 30 mg/kg TJ01-013 by oral gavage), the animals were adaptively fed for one week, and were administered every day starting from 11th week, and the animals were monitored for the concentration of randomized urinary proteins and urinary creatinine of the mice in each group every 2 weeks starting from week 11, the mouse urine protein to creatinine concentration ratio (uPCR) was calculated. The animals were administered for a total of 10 weeks, and blood was collected from the orbits at the end of administration and serum was collected. Serum creatinine, urea nitrogen, serum ANA and anti-dsDNA concentrations were detected.
Urine protein and urinary creatinine levels were detected by utilizing Caumas Brilliant Blue staining.
Serum creatinine and urea nitrogen were detected by biochemical analyzer.
Serum ANA and anti-dsDNA levels were detected by ELISA.
Kidney tissue was placed in a homogenizer and minced into pieces thoroughly with clean scissors; 400 μl of lysate was added to the homogenizer, homogenized and then placed on ice, and the grinding was repeated several times on ice until the kidney tissue was ground as thoroughly as possible; after 30 min of lysis, the lysate was transferred to a 1.5 ml centrifuge tube with a pipette, and then centrifuged for 10 min at 12,000 rpm under the condition of 4° C., and the supernatant was taken and stored at −20° C. Inflammatory factors TNFα and IL-6 in kidney tissue proteins were detected using ELISA.

Assay [2] relates to tinnitus model mice. Briefly: Sodium salicylate-induced tinnitus. To be noted: 8 kHz and 16 kHz noise; 7.5, 15, 30 mg/kg, dose-dependence; vs model group; FIG. 85. Format: in vivo, C57BL/6 mice. As for the experimental part:
7-week-old C57BL/6 male mice without tinnitus were screened for tinnitus-free mice using the acoustic startle (AS) response and gap pre-pulse inhibition of the acoustic startle (GPIAS). The mice were randomly divided into five groups, normal control group (normal, n=10), model control group (Control, n=10), TJ01-013 7.5 mg/kg treatment group (7.5 mg/kg, n=10), TJ01-013 15 mg/kg treatment group (15 mg/kg, n=10), and TJ01-013 30 mg/kg treatment group (30 mg/kg, n=10). Except for the normal control group, all the other groups were injected intraperitoneally with 450 mg/kg sodium salicylate to construct the model, in which the normal control group was injected intraperitoneally with the corresponding volume of saline, and the administration treatment was started on the day of modeling, in which the normal control group and the model control group were administrated vehicle (0.5% CMC-Na) by gavage, and the TJ01-013 treatment group was given the treatment of TJ01-013 with the corresponding concentration of TJ01-013 in a volume of 10 ml/kg, and the acoustic startle was measured again 3 hours after the last dose after 4 consecutive days of administration. Behavioral test, AS response paired with GPLAS response was the behavioral experiment to detect the presence of tinnitus. […] The output of the platform is amplified, sampled, stored in a computer, and analyzed offline. […]

Assay [3] deals with cisplatin-induced hearing impairment model in mice. Briefly: Cisplatin-induced hearing damage. It counts as in vivo, C57 mice. As for the experimental part: Select 8-week-old C57 male mice weighing 22-25 g, according to the previous studies and the previous laboratory exploration, mice were induced to have hearing damage by 4 mg/kg of cisplatin, and a certain amount of cisplatin was dissolved in 0.9% saline of the model control group, and then intraperitoneally injected into the mice for four consecutive days, with the volume of the intraperitoneal injection of 5 ml/kg, and then intraperitoneally injected into the mice for four consecutive days with the volume of 0.9% saline for recovery and alleviation, the injection was prescribed at the same time point every day, and no treatment was done on the 9th day to conduct hearing test or dissect the mice for subsequent experiments. […]
The mice were sacrificed by neck dissection, and the cochlea was removed from mice by neck dissection, and processed under the anatomical microscope to expose the round window and the oval window, the cochlear apex was perforate, and the round window, the oval window and the cochlear apex were perfused with 4% PFA solution, and then the whole cochlea was put into 4% PFA solution for fixation, and was shaken overnight at 4° C. […] Finally, photographs were taken using a fluorescence microscope.

The values below come from patent US20260027073A1, “USE OF SMALL-MOLECULE COMPOUND HAVING NAPHTHYLAMINE STRUCTURE” (HANGZHOU PHECDAMED CO., LTD., priority 2023, published 2026).

For `O=C(O)C[S+]([O-])c1cc(NS(=O)(=O)c2ccc(Br)cc2)c2ccccc2c1O` (stereo not shown) [I-1], in assay [1] (10 weeks of administration, 10 and 30 mg/kg groups, FIG. 74), the “urine protein to creatinine concentration ratio (uPCR)” value is given as “significantly lower”. Also, in assay [1] (vs model group, FIG. 75), the serum creatinine level entry is “significantly decreased” and the “serum urea nitrogen level” value is given as “significantly decreased”. The “serum ANA level” value in assay [1] (vs model group, FIG. 76) is “significantly decreased”. Further, in assay [1] (vs model group, FIG. 77), the “serum dsDNA level” value is listed as “significantly decreased”. For the same compound, in assay [1] (vs model group, FIG. 78), the “IL-6 level in kidney tissues” value is listed as “significantly reduced” and the “TNFα level in kidney tissues” value is on record as “significantly reduced”. Moreover, the “AS response amplitude ratios (GPIAS)” value in assay [2] is on record as “decreased significantly”. Moreover, the “hearing thresholds (ABR)” value in assay [3] (4, 8, 16, 24, 32 kHz, 30 mg/kg gavage, 8 days, FIG. 46) is reported as “significantly decreased”. For the same compound, in assay [3] (apical, middle, base gyrus, FIG. 47), the “loss of hair cells (Myo7a, cochlear basement membrane)” value is listed as “significantly reduced the loss of hair cells”.
